Our source for the Ki values is ChEMBL document CHEMBL1134895, “Synthesis and dopamine transporter binding affinities of 3alpha-benzyl-8-(diarylmethoxyethyl)-8-azabicyclo[3.2.1]octanes” (Bioorg Med Chem Lett, 2002).

In the experiment the target is Sodium-dependent dopamine transporter (Rattus norvegicus, UniProt P23977). Description: Displacement of [3H]WIN-35428 from dopamine transporter of rat caudate putamen tissue. The format is tissue-based. For orientation: In a radioligand displacement assay an active substance lowers the binding of a labelled ligand.
Sodium-dependent dopamine transporter, sequence (P23977 whole entry): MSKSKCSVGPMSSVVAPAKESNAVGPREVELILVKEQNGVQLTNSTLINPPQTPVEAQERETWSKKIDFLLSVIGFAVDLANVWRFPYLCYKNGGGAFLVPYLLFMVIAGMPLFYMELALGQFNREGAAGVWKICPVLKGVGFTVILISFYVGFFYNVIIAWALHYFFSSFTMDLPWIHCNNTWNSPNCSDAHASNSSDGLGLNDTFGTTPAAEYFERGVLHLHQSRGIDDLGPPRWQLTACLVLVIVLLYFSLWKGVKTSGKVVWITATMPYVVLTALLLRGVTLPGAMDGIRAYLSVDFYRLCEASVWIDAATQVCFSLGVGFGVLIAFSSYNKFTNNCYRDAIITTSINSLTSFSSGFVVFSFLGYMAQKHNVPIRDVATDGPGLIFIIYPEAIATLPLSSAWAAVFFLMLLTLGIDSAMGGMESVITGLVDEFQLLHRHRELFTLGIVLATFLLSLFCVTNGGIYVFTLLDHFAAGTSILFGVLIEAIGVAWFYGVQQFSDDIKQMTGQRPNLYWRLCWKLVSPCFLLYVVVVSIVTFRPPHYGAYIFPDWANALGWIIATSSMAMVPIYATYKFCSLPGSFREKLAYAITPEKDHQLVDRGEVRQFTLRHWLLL
What is called Ki is a dissociation constant, usually derived from enzyme kinetics or from competition with a known ligand. In the case of `c1ccc(CC2CC3CCC(C2)N3CCOC(c2ccccc2)c2ccccc2)cc1` (centres undefined), affinity was put at a Ki of 98 nM. Take `Clc1ccc(C(OCCN2C3CCC2CC(Cc2ccccc2)C3)c2ccc(Cl)cc2)cc1` (centres undefined): affinity was put at a Ki of 346 nM. As to `Cc1ccc(C(OCCN2C3CCC2CC(Cc2ccccc2)C3)c2ccc(C)cc2)cc1` (centres undefined), the inhibition constant (Ki) came to 217 nM. The value for `Clc1ccc(C(OCCN2C3CCC2CC(Cc2ccccc2)C3)c2ccccc2)cc1` (centres undefined) was 198 nM; that for `Fc1ccc(C(OCCN2CCC(CCCc3ccccc3)CC2)c2ccc(F)cc2)cc1` was 595 nM. In the case of `c1ccc(CN2C3CCC2CC(CCOC(c2ccccc2)c2ccccc2)C3)cc1` (centres undefined), the inhibition constant Ki turned out to be 99 nM. The value for `Fc1ccc(C(OCCC2CCN(CCCc3ccccc3)CC2)c2ccc(F)cc2)cc1` was 25 nM; that for `Fc1ccc(C(OCCN2C3CCC2CC(Cc2ccccc2)C3)c2ccc(F)cc2)cc1` (centres undefined) was 144 nM; that for `COc1ccc(C(OCCN2C3CCC2CC(Cc2ccccc2)C3)c2ccc(OC)cc2)cc1` (centres undefined) was 135 nM.
